# Results as given in PubChem BioAssay (NCI).
#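 Step 1: Grow cells in 96-well plates. Step 2: Expose to compound for 48 hours at 5 concentrations. Step 3: Interpolate endpoints linearly; if unreached, use highest concentration. GI50 marks 50% less growth. The concentration for full growth arrest is given as TGI.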
# Assays:
# Assay in all cases: NCI tumour cell line growth inhibition, 48 h
# [1] = tested on: 786-0 renal
# [2] = tested on: A498 renal
# [3] = tested on: A549 NSCLC
# [4] = tested on: ACHN renal
# [5] = tested on: BT-549 breast
# [6] = tested on: CAKI-1 renal
# [7] = tested on: CCRF-CEM leukemia
# [8] = tested on: COLO 205 colon
# [9] = tested on: DU-145 prostate
# [10] = tested on: EKVX NSCLC
# [11] = tested on: HCC-2998 colon
# [12] = tested on: HCT-116 colon
# [13] = tested on: HCT-15 colon
# [14] = tested on: HL-60(TB) leukemia
# [15] = tested on: HOP-62 NSCLC
# [16] = tested on: HOP-92 NSCLC
# [17] = tested on: HS 578T breast
# [18] = tested on: HT29 colon
# [19] = tested on: IGROV1 ovarian
# [20] = tested on: K-562 leukemia
# [21] = tested on: KM12 colon
# [22] = tested on: LOX IMVI melanoma
# [23] = tested on: M14 melanoma
# [24] = tested on: MALME-3M melanoma
# [25] = tested on: MCF7 breast
# [26] = tested on: MDA-MB-231 breast
# [27] = tested on: MDA-MB-435
# [28] = tested on: MDA-MB-468 breast
# [29] = tested on: MOLT-4 leukemia
# [30] = tested on: NCI-H226 lung
# [31] = tested on: NCI-H23 lung
# [32] = tested on: NCI-H460 lung
# [33] = tested on: NCI-H522 lung
# [34] = tested on: NCI/ADR-RES ovarian
# [35] = tested on: OVCAR-3 ovarian
# [36] = tested on: OVCAR-4 ovarian
# [37] = tested on: OVCAR-5 ovarian
# [38] = tested on: OVCAR-8 ovarian
# [39] = tested on: PC-3 prostate
# [40] = tested on: RPMI-8226 leukemia
# [41] = tested on: RXF 393 renal
# [42] = tested on: SF-268 CNS
# [43] = tested on: SF-295 CNS
# [44] = tested on: SF-539 CNS
# [45] = tested on: SK-MEL-2 melanoma
# [46] = tested on: SK-MEL-28 melanoma
# [47] = tested on: SK-MEL-5 melanoma
# [48] = tested on: SK-OV-3 ovarian
# [49] = tested on: SN12C renal
# [50] = tested on: SNB-19 CNS
# [51] = tested on: SNB-75 CNS
# [52] = tested on: SW-620 colon
# [53] = tested on: T-47D breast
# [54] = tested on: TK-10 renal
# [55] = tested on: U251 CNS
# [56] = tested on: UACC-257 melanoma
# [57] = tested on: UACC-62 melanoma
# [58] = tested on: UO-31 renal
# [59] = tested on: SR leukemia
compound,measurement,setting,value
COc1ccc2[nH]c(O)c(N=NC(=O)Cn3c(-c4ccccc4)nc4cc(C)ccc43)c2c1,GI50,[1],16 µM
same,TGI,[1],30.2 µM
same,GI50,[2],17.1 µM
same,TGI,[2],32.6 µM
same,GI50,[3],16.6 µM
same,TGI,[3],36.7 µM
same,GI50,[4],14.5 µM
same,TGI,[4],27.5 µM
same,GI50,[5],13.4 µM
same,TGI,[5],27.9 µM
same,GI50,[6],12.6 µM
same,TGI,[6],27 µM
same,GI50,[7],17.3 µM
same,TGI,[7],43.6 µM
same,GI50,[8],17.5 µM
same,TGI,[8],35.1 µM
same,GI50,[9],19.9 µM
same,TGI,[9],44.4 µM
same,GI50,[10],11 µM
same,TGI,[10],24.6 µM
same,GI50,[11],17.5 µM
same,TGI,[11],31.6 µM
same,GI50,[12],14 µM
same,TGI,[12],28 µM
same,GI50,[13],15.5 µM
same,TGI,[13],31.1 µM
same,GI50,[14],17.5 µM
same,TGI,[14],42.3 µM
same,GI50,[15],16 µM
same,TGI,[15],35.6 µM
same,GI50,[16],3.3 µM
same,TGI,[16],18 µM
same,GI50,[17],13.2 µM
same,TGI,[17],46.1 µM
same,GI50,[18],21.5 µM
same,TGI,[18],55.5 µM
same,GI50,[19],14.7 µM
same,TGI,[19],29.6 µM
same,GI50,[20],18 µM
same,TGI,[20],62.4 µM
same,GI50,[21],18.7 µM
same,TGI,[21],42.5 µM
same,GI50,[22],14.9 µM
same,TGI,[22],28.3 µM
same,GI50,[23],15.7 µM
same,TGI,[23],31.2 µM
same,GI50,[24],14.5 µM
same,TGI,[24],28.8 µM
same,GI50,[25],13.5 µM
same,TGI,[25],31.6 µM
same,GI50,[26],13.1 µM
same,TGI,[26],26.4 µM
same,GI50,[27],16.7 µM
same,TGI,[27],34.7 µM
same,GI50,[28],14.9 µM
same,TGI,[28],30.2 µM
same,GI50,[29],10.6 µM
same,TGI,[29],37.2 µM
same,GI50,[30],14 µM
same,TGI,[30],30.7 µM
same,GI50,[31],16.7 µM
same,TGI,[31],31.8 µM
same,GI50,[32],19.3 µM
same,TGI,[32],42.3 µM
same,GI50,[33],15.2 µM
same,TGI,[33],32.4 µM
same,GI50,[34],16.8 µM
same,TGI,[34],34.5 µM
same,GI50,[35],17.5 µM
same,TGI,[35],42.9 µM
same,GI50,[36],15 µM
same,TGI,[36],36.9 µM
same,GI50,[37],14.9 µM
same,TGI,[37],28.6 µM
same,GI50,[38],15.7 µM
same,TGI,[38],37.1 µM
same,GI50,[39],10.7 µM
same,TGI,[39],26.5 µM
same,GI50,[40],9.97 µM
same,TGI,[40],35.9 µM
same,GI50,[41],2.37 µM
same,TGI,[41],12.6 µM
same,GI50,[42],18.5 µM
same,TGI,[42],64.2 µM
same,GI50,[43],14.3 µM
same,TGI,[43],29 µM
same,GI50,[44],14.9 µM
same,TGI,[44],28.5 µM
same,GI50,[45],14.9 µM
same,TGI,[45],30.4 µM
same,GI50,[46],16.5 µM
same,TGI,[46],30.9 µM
same,GI50,[47],15 µM
same,TGI,[47],28.5 µM
same,GI50,[48],15.8 µM
same,TGI,[48],31.3 µM
same,GI50,[49],13.5 µM
same,TGI,[49],26.9 µM
same,GI50,[50],16.2 µM
same,TGI,[50],32.6 µM
same,GI50,[51],9.86 µM
same,TGI,[51],24.2 µM
same,GI50,[52],20.1 µM
same,TGI,[52],47.6 µM
same,GI50,[53],7.33 µM
same,TGI,[53],28.1 µM
same,GI50,[54],29 µM
same,TGI,[54],77.3 µM
same,GI50,[55],17 µM
same,TGI,[55],36.2 µM
same,GI50,[56],15.9 µM
same,TGI,[56],31.7 µM
same,GI50,[57],12.4 µM
same,TGI,[57],25.5 µM
same,GI50,[58],7.52 µM
same,TGI,[58],23.7 µM
COc1cc2oc(-c3cccc(C(=O)Nc4ccc(Cl)cc4)c3)cc(=O)c2c(OCCNC(=O)[C@@H](N)CO)c1OC,GI50,[1],13.2 µM
same,TGI,[1],32.4 µM
same,GI50,[2],32.8 µM
same,TGI,[2],65.7 µM
same,GI50,[3],> 100 µM
same,TGI,[3],> 100 µM
same,GI50,[4],30.6 µM
same,TGI,[4],> 100 µM
same,GI50,[5],10.3 µM
same,TGI,[5],25.4 µM
same,GI50,[6],65.4 µM
same,TGI,[6],> 100 µM
same,GI50,[7],2.39 µM
same,TGI,[7],5.83 µM
same,GI50,[8],6 µM
same,TGI,[8],20.2 µM
same,GI50,[9],16 µM
same,TGI,[9],35.4 µM
same,GI50,[10],16.8 µM
same,TGI,[10],> 100 µM
same,GI50,[11],5.83 µM
same,TGI,[11],19.3 µM
same,GI50,[12],4.72 µM
same,TGI,[12],19.5 µM
same,GI50,[13],19.6 µM
same,TGI,[13],> 100 µM
same,GI50,[14],8.2 µM
same,TGI,[14],30.4 µM
same,GI50,[15],7.74 µM
same,TGI,[15],29 µM
same,GI50,[16],2.65 µM
same,TGI,[16],12.7 µM
same,GI50,[17],4.32 µM
same,TGI,[17],18.2 µM
same,GI50,[18],6.44 µM
same,TGI,[18],26.6 µM
same,GI50,[19],7.15 µM
same,TGI,[19],23.9 µM
same,GI50,[21],15.3 µM
same,TGI,[21],29.1 µM
same,GI50,[22],1.79 µM
same,TGI,[22],3.5 µM
same,GI50,[23],1.84 µM
same,TGI,[23],3.72 µM
same,GI50,[24],2.47 µM
same,TGI,[24],6.92 µM
same,GI50,[25],3.53 µM
same,TGI,[25],13.3 µM
same,GI50,[26],2.87 µM
same,TGI,[26],9.37 µM
same,GI50,[27],4.59 µM
same,TGI,[27],17.8 µM
same,GI50,[28],1.51 µM
same,TGI,[28],3.63 µM
same,GI50,[29],2.4 µM
same,TGI,[29],5.18 µM
same,GI50,[30],12.8 µM
same,TGI,[30],53 µM
same,GI50,[31],12.6 µM
same,TGI,[31],30.2 µM
same,GI50,[32],8.48 µM
same,TGI,[32],22.1 µM
same,GI50,[33],3.61 µM
same,TGI,[33],18 µM
same,GI50,[34],> 100 µM
same,TGI,[34],> 100 µM
same,GI50,[35],13.4 µM
same,TGI,[35],26.9 µM
same,GI50,[36],12.8 µM
same,TGI,[36],30.3 µM
same,GI50,[37],9.96 µM
same,TGI,[37],44.3 µM
same,GI50,[38],10.1 µM
same,TGI,[38],21.7 µM
same,GI50,[39],10.8 µM
same,TGI,[39],35.6 µM
same,GI50,[40],3.36 µM
same,TGI,[40],> 100 µM
same,GI50,[41],8.76 µM
same,TGI,[41],67.6 µM
same,GI50,[42],13.9 µM
same,TGI,[42],32.4 µM
same,GI50,[43],6.84 µM
same,TGI,[43],25.1 µM
same,GI50,[44],11.3 µM
same,TGI,[44],24.5 µM
same,GI50,[45],2.1 µM
same,TGI,[45],5.03 µM
same,GI50,[46],1.77 µM
same,TGI,[46],3.46 µM
same,GI50,[47],9.11 µM
same,TGI,[47],26.6 µM
same,GI50,[48],14.8 µM
same,TGI,[48],38.2 µM
same,GI50,[49],6.64 µM
same,TGI,[49],21.4 µM
same,GI50,[50],4.94 µM
same,TGI,[50],18 µM
same,GI50,[51],10.2 µM
same,TGI,[51],24.3 µM
same,GI50,[59],2.66 µM
same,TGI,[59],7.75 µM
same,GI50,[52],3.93 µM
same,TGI,[52],14.1 µM
same,GI50,[53],4.19 µM
same,TGI,[53],21.9 µM
same,GI50,[54],16.9 µM
same,TGI,[54],37 µM
same,GI50,[55],2.02 µM
same,TGI,[55],3.9 µM
same,GI50,[56],1.97 µM
same,TGI,[56],3.74 µM
same,GI50,[57],13.5 µM
same,TGI,[57],31.6 µM
same,GI50,[58],45.6 µM
same,TGI,[58],> 100 µM
